Test results published in patent publication US20120027687A1, “FATTY ACID PROTEIN KINASE C ACTIVATORS AND ANTICOAGULANT FOR THE TREATMENT OF STROKE” (priority 2010, published 2012).

Assays:
PKCε [1] = target: T1, PKCε (Homo sapiens, UniProt Q02156); details: cited from earlier work
T1 construct: purchased Calbiochem
T1 sequence (Q02156 1-737): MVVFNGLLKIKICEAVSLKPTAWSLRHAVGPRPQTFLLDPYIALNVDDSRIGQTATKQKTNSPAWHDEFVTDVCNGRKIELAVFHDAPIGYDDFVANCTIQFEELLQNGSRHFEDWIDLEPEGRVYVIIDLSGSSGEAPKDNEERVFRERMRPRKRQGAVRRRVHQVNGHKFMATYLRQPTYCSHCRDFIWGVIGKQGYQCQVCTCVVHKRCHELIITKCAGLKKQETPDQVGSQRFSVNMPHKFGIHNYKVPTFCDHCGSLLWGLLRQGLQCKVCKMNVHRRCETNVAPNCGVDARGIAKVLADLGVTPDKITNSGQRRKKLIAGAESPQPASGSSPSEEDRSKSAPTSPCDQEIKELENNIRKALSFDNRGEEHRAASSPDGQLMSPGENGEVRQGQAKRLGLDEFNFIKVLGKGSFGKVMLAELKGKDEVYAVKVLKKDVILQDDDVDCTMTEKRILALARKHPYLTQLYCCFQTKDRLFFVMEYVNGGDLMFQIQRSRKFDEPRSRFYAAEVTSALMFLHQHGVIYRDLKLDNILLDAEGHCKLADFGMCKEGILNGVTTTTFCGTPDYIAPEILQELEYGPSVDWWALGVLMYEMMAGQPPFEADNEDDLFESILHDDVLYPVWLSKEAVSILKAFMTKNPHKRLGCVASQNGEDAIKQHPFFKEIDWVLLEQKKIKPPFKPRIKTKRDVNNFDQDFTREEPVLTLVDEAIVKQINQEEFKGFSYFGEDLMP

PKCε [2] = target: T1, PKCε; assay: PKC assay with purified PKCε; format: biochemical
Description: PKC assay. […] 0.5 micro Ci[^γ32P]ATP was added. […] The reaction was stopped by spotting the reaction mixtures on 1×2 cm strips of cellulose phosphate paper (Whatman P81) and immediately washing twice for 1 hr in 0.5% H3PO4. The cellulose phosphate strips were counted in a scintillation counter. In some experiments, phosphatidylserine, diacylglycerol, and/or calcium were removed. […]
(§1) To determine their PKC isozyme specificity, fatty acid derivatives were preincubated with purified PKC for five minutes and the PKC activity was measured radiometrically.

other PKC isoforms = assay: PKC isozyme specificity, other isoforms; format: biochemical; details: at 10 μM, data not shown
Description: Protein kinase C assay. Rat hippocampal cells were cultured and scraped in 0.2 ml homogenization buffer (20 mM Tris-HCl, pH 7.4, 50 mM NaF, 1 μg/ml leupeptin, and 0.1 mM PMSF) and homogenized by sonication a Marsonix microprobe sonicator (5 sec, 10W). To measure PKC, 10 μl of cell homogenate or purified PKC isozyme (purchased from Calbiochem) was incubated for 15 min at 37° C. in the presence of 10 μM histones, 4.89 mM CaCl2, 1.2 μg/μl phosphatidyl-L-serine, 0.18 μg/μl 1,2-dioctanoyl-sn-glycerol, 10 mM MgCl2, 20 mM HEPES (pH 7.4), 0.8 mM EDTA, 4 mM EGTA, 4% glycerol, 8 μg/ml aprotinin, 8 μg/ml leupeptin, and 2 mM benzamidine. 0.5 Ci [^γ32P]ATP was added and ^32P-phosphoprotein formation was measured by adsorption onto phosphocellulose as described previously. Nelson and Alkon, J. Neurochemistry (1995), vol. 65, pp. 2350-2357. For measurements of activation by BR-101 (DCP-LA) and similar compounds. PKC activity was measured in the absence of diacylglycerol and phosphatidylserine and PKC δ, ε, η, and μ were measured in the absence of added EGTA and CaCl2, as described by Kanno et al. (J. Lipid Res. 2006, vol. 47, pp. 1146-1150). […]
as §1

PKC = PKC activation over time in hippocampal primary neurons; format: cell-based, rat
Description: Cell culture. Rat hippocampal H19-7/IGF-IR cells (ATCC, Manassas, Va.) were plated onto poly-L-lysine coated plates and grown at 35° C. in DMEM/10% FCS for several days until about 50% coverage was obtained. The cells were then induced to differentiate into a neuronal phenotype by replacing the medium with 5 ml N2 medium containing 10 ng/ml basic fibroblast growth factor at 39° C. and grown in T-75 flasks at 37° C. Human SH-SY5Y neuroblastoma cells (ATCC) were cultured in 45% F12K/45% MEM/10% FCS. Mouse N2A neuroblastoma cells were cultured in DMEM/10% FCS without glutamine. Rat hippocampal neurons from 18-day-old embryonic Sprague Dawley rat brains were plated on 12- or 96-well plates coated with poly-D-lysine (Sigma-Aldrich, St. Louis, Mo.) in B-27 neurobasal medium containing 0.5 mM glutamine and 25 μM glutamate (Invitrogen, Carlsbad, Calif.) and cultured for three days in the medium without glutamate. The neuronal cells were grown under 5% CO2 in an incubator maintained at 37° C. for 14 days.
(§2) Protein kinase C assay. […] 0.5 Ci [^γ32P]ATP was added and ^32P-phosphoprotein formation was measured by adsorption onto phosphocellulose as described previously. […] PKC activity was measured in the absence of diacylglycerol and phosphatidylserine and PKC δ, ε, η, and μ were measured in the absence of added EGTA and CaCl2, as described by Kanno et al. (J. Lipid Res. 2006, vol. 47, pp. 1146-1150). […]

PKCα = target: T2, PKCα (Homo sapiens, UniProt P17252); assay: PKC assay with PKCα; format: biochemical; details: data not shown
T2 construct: purchased Calbiochem
Description: PKC assay. Recombinant PKC (1 ng of PKCα or PKCε isoform) was mixed with BR-101 (DCP-LA) in the presence of 10 micromolar histones, 5 mM CaCl2, 1.2 μg/μl phosphatidyl-L-serine, 0.18 μg/μl 1,2-dioctanoyl-sn-glycerol (DAG), 10 mM MgCl2, 20 mM HEPES (pH 7.4), 0.8 mM EDTA, 4 mM EGTA, 4% glycerol, 8 μg/ml aprotinin, 8 μg/ml leupeptin, and 2 mM benzamidine. 0.5 micro Ci[^γ32P]ATP was added. The incubation mixture was incubated for 15 min at 37 degrees in a total volume of 10 microliters. The reaction was stopped by spotting the reaction mixtures on 1×2 cm strips of cellulose phosphate paper (Whatman P81) and immediately washing twice for 1 hr in 0.5% H3PO4. The cellulose phosphate strips were counted in a scintillation counter. In some experiments, phosphatidylserine, diacylglycerol, and/or calcium were removed.
as §2, §1

CCCCCC1CC1CC1CC1CCCCCCCC(=O)O (stereo not shown) [BR-101, 2-[(2-pentylcyclopropyl)methyl]cyclopropaneoctanoic acid]
concentration of maximal effect on PKCε (PKCε [1]): 100 nM
activation of PKCε (PKCε [2]; 10 nM, lowest concentration tested): 2.75 fold
activation of PKCε (PKCε [2]; at 10 μM): effective activator
effects on the other PKC isoforms (other PKC isoforms): relatively small effects
duration of elevated PKC (PKC): remained elevated for at least four hours
effect on PKCα at higher concentrations (PKCα; 50-100 μM): activated
effect on PKCα (PKCα): not affected
